{"source": "paper PMC8770593", "about": "(Nature Communications, 2022)", "key": {"[1]": {"tested_on": "α1BAR expressed in mammalian cells", "settings": "radioligand binding; ref Proudman, R. G. W., et al., Pharmacol. Res. Perspect. 8 (2020); cited from earlier work"}, "wild-type α2CAR": {"target": "T1, wild-type α2CAR (Homo sapiens, UniProt P18825)", "T1 sequence (P18825 37-462 limits assumed)": "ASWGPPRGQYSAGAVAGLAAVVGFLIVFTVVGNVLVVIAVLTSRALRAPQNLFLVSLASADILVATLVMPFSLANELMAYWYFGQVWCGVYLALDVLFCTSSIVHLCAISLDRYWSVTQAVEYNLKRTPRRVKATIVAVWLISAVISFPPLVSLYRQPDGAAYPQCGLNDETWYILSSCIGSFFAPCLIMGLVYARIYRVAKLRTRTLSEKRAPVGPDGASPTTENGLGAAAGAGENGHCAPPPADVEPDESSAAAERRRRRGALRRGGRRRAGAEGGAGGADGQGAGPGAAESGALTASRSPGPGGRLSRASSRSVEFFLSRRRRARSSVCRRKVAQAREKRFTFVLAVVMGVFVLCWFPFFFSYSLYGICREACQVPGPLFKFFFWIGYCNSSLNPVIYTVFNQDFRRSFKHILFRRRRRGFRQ", "experiment": "HTRF ligand-binding assay on whole transfected HEK293T/17 cells (QAPB saturation; competition with QAPB tracer)", "settings": "pKi (competition binding), competition with 50 nM QAPB tracer, whole cells, mean"}, "[2]": {"target": "T2, α1BAR-α2C(L^45.52) chimera (V197^45.52→L) (Homo sapiens, UniProt P35368, V197L)", "T2 sequence (P35368 35-520 V197L)": "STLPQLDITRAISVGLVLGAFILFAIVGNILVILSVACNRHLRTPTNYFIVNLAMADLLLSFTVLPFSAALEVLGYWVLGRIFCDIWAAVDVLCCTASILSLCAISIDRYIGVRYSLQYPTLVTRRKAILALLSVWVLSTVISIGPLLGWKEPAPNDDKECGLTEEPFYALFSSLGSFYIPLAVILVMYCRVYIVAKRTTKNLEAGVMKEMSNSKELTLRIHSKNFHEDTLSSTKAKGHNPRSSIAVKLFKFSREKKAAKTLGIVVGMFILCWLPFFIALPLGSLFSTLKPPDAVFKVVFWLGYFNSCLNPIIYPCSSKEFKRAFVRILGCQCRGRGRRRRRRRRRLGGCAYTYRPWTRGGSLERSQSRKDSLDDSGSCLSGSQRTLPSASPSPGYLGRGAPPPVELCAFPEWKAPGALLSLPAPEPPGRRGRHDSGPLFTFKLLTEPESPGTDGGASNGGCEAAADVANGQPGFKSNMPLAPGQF", "experiment": "HTRF ligand-binding assay on whole transfected HEK293T/17 cells (QAPB saturation; competition with QAPB tracer)"}, "[3]": {"target": "rat cerebral cortex tissue containing all three α2AR subtypes", "set-up": "method as in Giardinà, D. et al., J. Med. Chem. 39, 4602-4607 (1996)", "settings": "ref Giardinà, D. et al., J. Med. Chem. 39, 4602-4607 (1996); cited from earlier work"}}}
{"compound": "COc1cc2nc(N3CCN(C(=O)c4ccco4)[C@H]4CCCC[C@H]43)nc(N)c2cc1OC", "note": "(relative stereo) [cyclazosin, [4-(4-amino-6,7-dimethoxyquinazolin-2-yl)-cis-octahydroquinoxalin-1-yl] furan-2-ylmethanone]", "values": [{"measurement": "affinity as pK value (RLBA)", "setting": "[1]", "result": 8.68}, {"measurement": "Ki", "setting": "wild-type α2CAR", "result": 339, "unit": "nM"}, {"measurement": "effect of the substitution on affinity", "setting": "[2]; V197^45.52→L vs wild-type α1BAR", "result": "negligible"}, {"measurement": "Ki", "setting": "[2]; pKi (competition binding), competition with 2 nM QAPB tracer, whole cells, mean", "result": 1.1, "unit": "nM"}, {"measurement": "affinity as pK value (RLBA)", "setting": "[3]", "result": 6.17}]}
